Results published in ChEMBL document CHEMBL3217524, “The anti-tumor antibiotic PD 113,271 binds to microtubule-associated protein 1B (MAP1B)” (Medchemcomm, 2011).
Converted amounts (≈) assume the structure as drawn. The source made the active and inactive calls. The rule behind the calls is not given here.

How the values were obtained:
[1] = biological target: T1, Microtubule-associated protein 1B (Homo sapiens, UniProt P46821); experiment: Binding affinity to MAP1B in human MCF7 cells assessed as protein complex at 1 uM after 24 hrs by DAPI staining-based immunofluorescence microscopy relative to control; format: cell-based
[2] = biological target: T1, Microtubule-associated protein 1B; experiment: Binding affinity to human recombinant MAP1B-HBR (589 to 790) expressed in Escherichia coli BL21(DE3) assessed as inhibition of MAP1B-HBR-tubulin interaction at 1 to 20 uM by surface plasmon resonance analysis
[3] = Cytotoxicity against human HCT8 cells; format: functional, cell-based; settings: HCT-8
[4] = biological target: T1, Microtubule-associated protein 1B; experiment: Binding affinity to MAP1B in human MCF7 cells assessed as protein localization around perinuclear region at 1 uM after 24 hrs by DAPI staining-based immunofluorescence microscopy relative to control; format: cell-based
[5] = tested on: Ehrlich; experiment: Inhibition of topoisomerse-2 in mouse EAC cells; format: cell-based
[6] = tested on: L1210; experiment: Cytotoxicity against mouse L1210 cells; format: functional, cell-based
[7] = biological target: Microtubule-associated protein 1B (Rattus norvegicus) (UniProt P15205); experiment: Binding affinity to MAP1B in rat PC12 cells after 2 hrs by Western blotting analysis; format: cell-based; settings: PC-12
[8] = biological target: T1, Microtubule-associated protein 1B; experiment: Binding affinity to human MAP1B (582 to 705) expressed in T7 phage after 1 hr by ELISA
[9] = biological target: Ribosomal L1 domain-containing protein 1 (Homo sapiens) (UniProt O76021); experiment: Binding affinity to human ribosomal L1 domain containing protein (309 to 432) expressed in T7 phage after 1 hr by ELISA
[10] = biological target: T1, Microtubule-associated protein 1B; experiment: Binding affinity to human recombinant MAP1B-HBR (589 to 790) expressed in Escherichia coli BL21(DE3) by surface plasmon resonance analysis
[11] = Inhibition of PP2A (unknown origin) by spectrophotometry; parameters: species or system Homo sapiens

T1 sequence (P46821 2-2206 limits assumed): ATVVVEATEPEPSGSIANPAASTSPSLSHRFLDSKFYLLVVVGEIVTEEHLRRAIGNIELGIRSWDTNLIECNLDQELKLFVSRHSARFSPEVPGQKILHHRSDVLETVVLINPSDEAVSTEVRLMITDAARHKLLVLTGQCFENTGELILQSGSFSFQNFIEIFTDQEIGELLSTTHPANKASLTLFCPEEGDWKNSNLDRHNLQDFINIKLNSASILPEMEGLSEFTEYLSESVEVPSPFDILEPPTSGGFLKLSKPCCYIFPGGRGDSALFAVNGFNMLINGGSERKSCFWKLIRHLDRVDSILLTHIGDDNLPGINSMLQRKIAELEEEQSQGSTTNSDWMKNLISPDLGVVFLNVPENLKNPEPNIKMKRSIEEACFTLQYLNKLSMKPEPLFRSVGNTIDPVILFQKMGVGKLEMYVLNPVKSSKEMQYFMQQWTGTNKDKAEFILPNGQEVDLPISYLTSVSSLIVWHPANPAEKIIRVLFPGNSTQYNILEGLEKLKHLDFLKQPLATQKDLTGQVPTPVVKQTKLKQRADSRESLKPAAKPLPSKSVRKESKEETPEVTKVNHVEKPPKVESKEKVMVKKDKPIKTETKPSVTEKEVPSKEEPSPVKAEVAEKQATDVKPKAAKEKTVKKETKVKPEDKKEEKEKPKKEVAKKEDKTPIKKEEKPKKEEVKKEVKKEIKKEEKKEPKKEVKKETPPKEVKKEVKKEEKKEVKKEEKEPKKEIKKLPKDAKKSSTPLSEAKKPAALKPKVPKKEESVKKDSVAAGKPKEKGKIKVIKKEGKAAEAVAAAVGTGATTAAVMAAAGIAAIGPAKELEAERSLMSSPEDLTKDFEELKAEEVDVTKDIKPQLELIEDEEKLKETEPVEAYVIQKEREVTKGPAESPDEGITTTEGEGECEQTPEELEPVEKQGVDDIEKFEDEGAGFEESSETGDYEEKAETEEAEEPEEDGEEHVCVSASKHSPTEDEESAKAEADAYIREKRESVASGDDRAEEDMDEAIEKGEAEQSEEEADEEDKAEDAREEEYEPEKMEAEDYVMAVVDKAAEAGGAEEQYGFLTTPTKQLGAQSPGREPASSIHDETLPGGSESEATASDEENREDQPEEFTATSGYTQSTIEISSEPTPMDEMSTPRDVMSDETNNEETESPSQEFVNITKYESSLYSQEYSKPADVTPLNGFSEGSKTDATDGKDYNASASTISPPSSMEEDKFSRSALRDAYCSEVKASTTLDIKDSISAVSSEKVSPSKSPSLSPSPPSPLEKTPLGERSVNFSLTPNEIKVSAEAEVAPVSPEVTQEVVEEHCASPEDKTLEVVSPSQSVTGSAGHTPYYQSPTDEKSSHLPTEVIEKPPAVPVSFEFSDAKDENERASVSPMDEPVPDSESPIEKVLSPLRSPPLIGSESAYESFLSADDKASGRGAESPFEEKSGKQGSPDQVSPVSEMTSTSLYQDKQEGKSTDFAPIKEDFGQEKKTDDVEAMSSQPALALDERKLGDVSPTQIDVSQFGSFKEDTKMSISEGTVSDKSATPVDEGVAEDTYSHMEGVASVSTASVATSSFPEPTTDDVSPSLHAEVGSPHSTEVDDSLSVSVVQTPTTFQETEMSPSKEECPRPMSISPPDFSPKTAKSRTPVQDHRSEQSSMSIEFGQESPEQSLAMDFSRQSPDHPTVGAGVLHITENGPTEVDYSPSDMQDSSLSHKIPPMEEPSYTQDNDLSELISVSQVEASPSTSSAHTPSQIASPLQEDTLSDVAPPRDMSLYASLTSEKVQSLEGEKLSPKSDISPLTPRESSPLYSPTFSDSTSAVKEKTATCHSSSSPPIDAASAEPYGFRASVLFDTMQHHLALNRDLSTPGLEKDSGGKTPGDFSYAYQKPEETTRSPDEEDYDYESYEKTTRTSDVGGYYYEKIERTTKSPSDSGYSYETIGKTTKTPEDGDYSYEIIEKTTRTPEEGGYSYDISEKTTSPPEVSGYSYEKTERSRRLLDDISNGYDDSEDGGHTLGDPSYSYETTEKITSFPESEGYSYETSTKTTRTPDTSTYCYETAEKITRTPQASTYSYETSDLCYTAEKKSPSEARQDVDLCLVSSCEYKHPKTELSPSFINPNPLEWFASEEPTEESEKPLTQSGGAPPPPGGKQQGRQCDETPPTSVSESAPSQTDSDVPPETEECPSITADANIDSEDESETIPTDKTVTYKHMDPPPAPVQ
T1 sequence (P46821 2207-2468 limits assumed): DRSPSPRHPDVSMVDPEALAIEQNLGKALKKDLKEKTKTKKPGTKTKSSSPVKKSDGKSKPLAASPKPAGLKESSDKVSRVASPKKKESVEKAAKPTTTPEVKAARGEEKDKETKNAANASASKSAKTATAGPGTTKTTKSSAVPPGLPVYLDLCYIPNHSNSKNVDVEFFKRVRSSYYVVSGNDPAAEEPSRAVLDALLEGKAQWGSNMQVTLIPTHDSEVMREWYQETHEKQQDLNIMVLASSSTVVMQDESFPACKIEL
Microtubule-associated protein 1B (Rattus norvegicus), sequence (P15205 whole entry): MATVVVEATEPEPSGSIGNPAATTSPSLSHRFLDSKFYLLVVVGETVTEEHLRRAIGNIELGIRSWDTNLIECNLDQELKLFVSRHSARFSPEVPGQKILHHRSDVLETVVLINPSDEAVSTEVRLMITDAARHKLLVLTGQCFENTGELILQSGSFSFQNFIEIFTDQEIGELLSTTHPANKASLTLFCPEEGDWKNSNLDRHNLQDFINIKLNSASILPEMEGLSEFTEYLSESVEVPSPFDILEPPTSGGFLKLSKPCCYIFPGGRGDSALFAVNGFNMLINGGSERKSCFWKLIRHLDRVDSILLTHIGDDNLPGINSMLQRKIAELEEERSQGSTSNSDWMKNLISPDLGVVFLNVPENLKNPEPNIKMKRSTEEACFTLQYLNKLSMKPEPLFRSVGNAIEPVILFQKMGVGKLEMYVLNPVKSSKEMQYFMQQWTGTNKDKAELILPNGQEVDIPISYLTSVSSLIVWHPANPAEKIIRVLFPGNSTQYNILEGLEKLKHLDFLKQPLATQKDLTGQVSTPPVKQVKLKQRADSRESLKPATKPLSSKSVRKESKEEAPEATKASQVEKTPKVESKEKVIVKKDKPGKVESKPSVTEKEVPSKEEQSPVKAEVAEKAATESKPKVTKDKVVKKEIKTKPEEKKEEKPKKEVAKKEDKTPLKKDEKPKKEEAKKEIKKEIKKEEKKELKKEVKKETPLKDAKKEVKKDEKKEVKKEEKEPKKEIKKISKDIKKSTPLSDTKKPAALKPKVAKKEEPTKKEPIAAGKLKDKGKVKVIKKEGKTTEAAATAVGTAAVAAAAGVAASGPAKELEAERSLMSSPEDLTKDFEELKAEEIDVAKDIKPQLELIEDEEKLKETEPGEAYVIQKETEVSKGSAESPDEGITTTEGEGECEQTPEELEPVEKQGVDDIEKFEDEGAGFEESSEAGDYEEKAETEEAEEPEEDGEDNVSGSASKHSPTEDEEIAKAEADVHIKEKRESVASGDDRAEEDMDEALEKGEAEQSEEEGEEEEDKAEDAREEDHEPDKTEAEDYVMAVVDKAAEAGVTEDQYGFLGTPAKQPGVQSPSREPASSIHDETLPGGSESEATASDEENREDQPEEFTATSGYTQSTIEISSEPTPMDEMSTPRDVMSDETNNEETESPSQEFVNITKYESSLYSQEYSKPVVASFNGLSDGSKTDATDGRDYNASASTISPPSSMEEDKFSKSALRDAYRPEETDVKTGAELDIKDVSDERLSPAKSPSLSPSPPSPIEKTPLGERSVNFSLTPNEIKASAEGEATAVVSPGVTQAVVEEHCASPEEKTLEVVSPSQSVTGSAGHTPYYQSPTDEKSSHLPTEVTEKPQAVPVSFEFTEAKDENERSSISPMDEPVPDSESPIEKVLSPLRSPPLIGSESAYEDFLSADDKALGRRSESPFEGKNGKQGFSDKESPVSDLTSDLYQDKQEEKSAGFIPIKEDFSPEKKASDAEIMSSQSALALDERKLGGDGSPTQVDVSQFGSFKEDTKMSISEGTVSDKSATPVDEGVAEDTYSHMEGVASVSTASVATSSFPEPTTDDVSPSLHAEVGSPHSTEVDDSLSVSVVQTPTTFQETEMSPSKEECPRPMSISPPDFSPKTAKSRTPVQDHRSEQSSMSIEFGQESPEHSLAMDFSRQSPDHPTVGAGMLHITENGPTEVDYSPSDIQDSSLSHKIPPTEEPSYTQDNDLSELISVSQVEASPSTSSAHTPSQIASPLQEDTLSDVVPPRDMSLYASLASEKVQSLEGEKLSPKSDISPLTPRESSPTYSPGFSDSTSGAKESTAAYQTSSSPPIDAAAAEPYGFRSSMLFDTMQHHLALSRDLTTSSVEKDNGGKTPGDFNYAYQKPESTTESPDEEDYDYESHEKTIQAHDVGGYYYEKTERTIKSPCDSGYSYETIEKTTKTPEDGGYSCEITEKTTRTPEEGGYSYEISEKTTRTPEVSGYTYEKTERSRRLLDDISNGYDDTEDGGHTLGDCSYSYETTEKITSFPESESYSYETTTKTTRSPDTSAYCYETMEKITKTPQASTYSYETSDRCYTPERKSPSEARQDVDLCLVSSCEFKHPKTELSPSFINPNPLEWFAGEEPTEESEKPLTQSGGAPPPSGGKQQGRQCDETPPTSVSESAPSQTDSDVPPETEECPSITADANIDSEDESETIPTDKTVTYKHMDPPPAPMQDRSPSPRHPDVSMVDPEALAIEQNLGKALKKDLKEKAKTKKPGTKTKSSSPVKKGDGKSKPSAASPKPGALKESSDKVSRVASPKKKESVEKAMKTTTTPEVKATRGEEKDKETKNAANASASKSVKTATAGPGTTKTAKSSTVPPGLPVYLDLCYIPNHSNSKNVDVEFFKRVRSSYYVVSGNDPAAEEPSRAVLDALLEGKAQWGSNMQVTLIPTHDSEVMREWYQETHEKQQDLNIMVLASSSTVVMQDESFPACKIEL

Row | Compound | IC50 [3] [nM] | MIC [5] [µM] | Activity [8] | Activity [9] | also measured
1 | C[C@@](O)(/C=C/[C@@H]1OC(=O)C=C[C@@H]1O)[C@@H](C[C@@H](O)\C=C/C=C\C=C\CO)OP(=O)(O)O | 9000 | 12.5 (≈ 5.58 µg/mL) |  |  | Activity [1]: Active; Activity [2]: Active; Activity [4]: Active; IC50 [6]: 1800 nM; Activity [7]: Active
2 | C[C@@](O)(/C=C/[C@@H]1OC(=O)C=C[C@@H]1OCc1ccc(OCCOCCOCc2cn(CCOCCNC(=O)CCCC[C@@H]3SC[C@@H]4NC(=O)N[C@@H]43)nn2)cc1)[C@@H](C[C@@H](O)\C=C/C=C\C=C\CO)OP(=O)(O)O |  |  | Active | Active | Kd [10]: 210 nM
3 | O=C(CCCC[C@@H]1SC[C@@H]2NC(=O)N[C@@H]21)NCCOCCn1cc(COCCOCCOc2ccc(COP(=O)(O)O)cc2)nn1 |  |  | inactive | Active | 
4 | C[C@@](O)(/C=C/[C@H]1CC=CC(=O)O1)[C@@H](C[C@@H](O)\C=C/C=C\C=C\CO)OP(=O)(O)O [FOSTRIECIN] | 5100 | 50 (≈ 21.5 µg/mL) |  |  | IC50 [11]: 1.5 nM
